From US7932384B2, “Reverse-turn mimetics and method relating thereto” (Choongwae Pharma Corporation, priority 2001, dated 2011)

Legend:
cultured tumor cells [1] = assay: Cell death of cultured tumor cells; format: cell-based; settings: 5.0 μM
cultured tumor cells [2] = assay: FACS analysis of cells in G0, cultured tumor cells; format: cell-based; settings: 5 μM
[3] = tested on: Ephrin B2 (EphB2) receptor; assay: EphB2 receptor expression (immunofluorescence and RT-PCR) in PC-12 PS-1/L286V cells; format: cell-based, Rat; settings: PS-1/L286V mutant PC-12 cells, 10 μM
Method: Immunofluorescence. Cells were plated at a density of 10,000 cells/cm^2 on sterile coated 22×22 mm coverslips in a 6-well culture plate. Differentiation was initiated, as previously described, for 10 days. The differentiated cells were then fixed in methanol for 15 minutes at −20° C. This is followed by a 15 minutes incubation with PBS+0.1% Triton X-100. The coverslips were incubated with antibodies raised against Ephrin B2 Receptor (Santa Cruz Biotechnology) and Gap-43 (Novus Biologicals) for 40 minutes at 37° C. After a series of washes with PBS-Triton X-100, secondary antibody conjugated to FITC (Jackson ImmunoResearch, Westgrove, Pa.) was applied. All slides images were acquired using a Nikon PCM2000 Laser Scanning Confocal Microscope mounted on a Nikon Eclipse E600 upright microscope (Nikon, Melville, N.Y.).
RT-PCR. To analyze the mRNA levels for Ephrin B2 (EphB2) receptor, total RNA was isolated using Trizol (Invitrogen-GIBCO-BRL, Baltimore, Md.) from differentiated cells. 2 μg RNA was reverse transcribed in a total volume of 20 μl with random hexamer (50 ng), and using the Superscript II reverse transcription system (Invitrogen-GIBCO-BRL), according to manufacturer's guidelines. PCR was carried out in a 50 μl volume containing 5 μl cDNA, 100 pmol primers, 100 μM dNTPs, 1×Taq buffer and 1.5 mM MgCl2. […]

PCNA = assay: Real time RT-PCR gene expression, PCNA; format: cell-based; settings: 25 μM, 24 hours; <0.5 significant decrease, >1.5 significant increase
Method: Real time reverse transcription-PCR analysis was performed according to the protocol provided with the SYBR Green PCR Master Mix Kit (Perkin Elmer Biosystems, Shelton, ST). […] The primers used for the RT-PCR reactions were [NT] and [NT].

[4] = tested on: TCF/β-catenin reporter gene transcription; assay: TOPFLASH luciferase assay in differentiated PC-12 PS-1/L286V cells; format: cell-based, Rat; settings: PS-1/L286V mutant PC-12 cells, 10 μM plus NGF
Method: Differentiated PC-12/L286V cells were treated with increasing concentrations of this compound for 4 hours. Transfection was then initiated after this treatment period.
Transfection. PC-12 cells were cultured and differentiated on 60-mm dishes. At the end of the 10-day differentiation period, cells were transfected with 2 μg reporter constructs, TOPFLASH and FOPFLASH, per 60-mm dish. Transfections were performed using Superfect (Qiagen) according to manufacturer's instructions.
Luciferase Assays. Cells were lysed, 6 hours after transfections, in 100 μl of Cell Culture Lysis Reagent (Promega, Madison, Wis.), and scraped into microcentrifuge tubes. Tubes were then centrifuged briefly (about 10 seconds) at 12000 rpm to pellet cell debris. Luciferase activity was measured on 20 μl of cell lysate and 100 μl substrate from the Luciferase Assay System (Promega). Luciferase activity was measure using Packard LumiCount. (Hewlett Packard). Quantitation of luciferase was performed in triplicates, and repeated in at least three independent experiments.

O=C1[C@H](Cc2ccc(O)cc2)N2C(=O)CCN(C(=O)NCc3ccccc3)[C@H]2CN1Cc1cccc2ccccc12 [Compound D]
cell death (cultured tumor cells [1]): promote cell death | number of cells in G0 (FACS) (cultured tumor cells [2]): increase the number of cells in G0 | EphB2 message (RT-PCR) [3]: increased EphB2 message | Ratio (Treated/DMSO Control) PCNA (PCNA): 0.33 | TCF/β-catenin reporter gene transcription [4]: decreased TCF/β-catenin reporter gene transcription
